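Following 48 hours of exposure in 96-well plates, responses at five concentrations were used to interpolate endpoints linearly. GI50: concentration for 50% inhibition of growth. TGI marks complete inhibition of growth.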
Assays:
Experiment in all cases: NCI-60 cell line screen, 48 h
786-0 renal = tested on: 786-0 renal
A498 renal = tested on: A498 renal
A549 NSCLC = tested on: A549 NSCLC
ACHN renal = tested on: ACHN renal
BT-549 breast = tested on: BT-549 breast
CAKI-1 renal = tested on: CAKI-1 renal
CCRF-CEM leukemia = tested on: CCRF-CEM leukemia
COLO 205 colon = tested on: COLO 205 colon
DU-145 prostate = tested on: DU-145 prostate
EKVX NSCLC = tested on: EKVX NSCLC
HCC-2998 colon = tested on: HCC-2998 colon
HCT-116 colon = tested on: HCT-116 colon
HCT-15 colon = tested on: HCT-15 colon
HL-60(TB) leukemia = tested on: HL-60(TB) leukemia
HOP-62 NSCLC = tested on: HOP-62 NSCLC
HOP-92 NSCLC = tested on: HOP-92 NSCLC
HS 578T breast = tested on: HS 578T breast
HT29 colon = tested on: HT29 colon
IGROV1 ovarian = tested on: IGROV1 ovarian
K-562 leukemia = tested on: K-562 leukemia
KM12 colon = tested on: KM12 colon
LOX IMVI melanoma = tested on: LOX IMVI melanoma
M14 melanoma = tested on: M14 melanoma
MALME-3M melanoma = tested on: MALME-3M melanoma
MCF7 breast = tested on: MCF7 breast
MDA-MB-231 breast = tested on: MDA-MB-231 breast
MDA-MB-435 = tested on: MDA-MB-435
MOLT-4 leukemia = tested on: MOLT-4 leukemia
NCI-H226 lung = tested on: NCI-H226 lung
NCI-H23 lung = tested on: NCI-H23 lung
NCI-H460 lung = tested on: NCI-H460 lung
NCI-H522 lung = tested on: NCI-H522 lung
NCI/ADR-RES ovarian = tested on: NCI/ADR-RES ovarian
OVCAR-3 ovarian = tested on: OVCAR-3 ovarian
OVCAR-4 ovarian = tested on: OVCAR-4 ovarian
OVCAR-5 ovarian = tested on: OVCAR-5 ovarian
OVCAR-8 ovarian = tested on: OVCAR-8 ovarian
PC-3 prostate = tested on: PC-3 prostate
SF-268 CNS = tested on: SF-268 CNS
SF-295 CNS = tested on: SF-295 CNS
SF-539 CNS = tested on: SF-539 CNS
SK-MEL-2 melanoma = tested on: SK-MEL-2 melanoma
SK-MEL-28 melanoma = tested on: SK-MEL-28 melanoma
SK-MEL-5 melanoma = tested on: SK-MEL-5 melanoma
SK-OV-3 ovarian = tested on: SK-OV-3 ovarian
SN12C renal = tested on: SN12C renal
SNB-19 CNS = tested on: SNB-19 CNS
SNB-75 CNS = tested on: SNB-75 CNS
SR leukemia = tested on: SR leukemia
SW-620 colon = tested on: SW-620 colon
T-47D breast = tested on: T-47D breast
TK-10 renal = tested on: TK-10 renal
UACC-257 melanoma = tested on: UACC-257 melanoma
UACC-62 melanoma = tested on: UACC-62 melanoma
UO-31 renal = tested on: UO-31 renal

## CCN(CC)c1ccc(/C=C2\SC(=O)C(Nc3nnc(-c4cccnc4SCc4ccccc4)o3)C2=O)cc1 (stereo not given)
786-0 renal
  GI50: 9.51 µM
  TGI: > 100 µM
A498 renal
  GI50: 1.76 µM
  TGI: 8.2 µM
A549 NSCLC
  GI50: 3.98 µM
  TGI: > 100 µM
ACHN renal
  GI50: 6.78 µM
  TGI: > 100 µM
BT-549 breast
  GI50: 12 µM
  TGI: 59.3 µM
CAKI-1 renal
  GI50: 4.43 µM
  TGI: > 100 µM
CCRF-CEM leukemia
  GI50: 3.37 µM
  TGI: > 100 µM
COLO 205 colon
  GI50: 2.19 µM
  TGI: 4.65 µM
DU-145 prostate
  GI50: 2.76 µM
  TGI: 6.92 µM
EKVX NSCLC
  GI50: 6.72 µM
  TGI: > 100 µM
HCC-2998 colon
  GI50: 2.99 µM
  TGI: 10.4 µM
HCT-116 colon
  GI50: 3.53 µM
  TGI: > 100 µM
HCT-15 colon
  GI50: 3.83 µM
  TGI: > 100 µM
HL-60(TB) leukemia
  GI50: 3.88 µM
  TGI: > 100 µM
HOP-62 NSCLC
  GI50: 4.32 µM
  TGI: 24.9 µM
HOP-92 NSCLC
  GI50: 2.58 µM
  TGI: 35 µM
HS 578T breast
  GI50: 2.61 µM
  TGI: 8.77 µM
HT29 colon
  GI50: 3.63 µM
  TGI: > 100 µM
IGROV1 ovarian
  GI50: 10.9 µM
  TGI: 56.8 µM
K-562 leukemia
  GI50: 3.24 µM
  TGI: > 100 µM
KM12 colon
  GI50: 3.64 µM
  TGI: 28.4 µM
LOX IMVI melanoma
  GI50: 3.76 µM
  TGI: > 100 µM
M14 melanoma
  GI50: 3.24 µM
  TGI: 13.5 µM
MALME-3M melanoma
  GI50: 4.12 µM
  TGI: > 100 µM
MCF7 breast
  GI50: 3.01 µM
  TGI: > 100 µM
MDA-MB-231 breast
  GI50: 2.34 µM
  TGI: 10.4 µM
MDA-MB-435
  GI50: 2.18 µM
  TGI: 5.81 µM
MOLT-4 leukemia
  GI50: 3.53 µM
  TGI: > 100 µM
NCI-H226 lung
  GI50: 9.41 µM
  TGI: 57.6 µM
NCI-H23 lung
  GI50: 2.58 µM
  TGI: 8.62 µM
NCI-H460 lung
  GI50: 3.21 µM
  TGI: > 100 µM
NCI-H522 lung
  GI50: 3.15 µM
  TGI: 9.67 µM
NCI/ADR-RES ovarian
  GI50: 3.7 µM
  TGI: > 100 µM
OVCAR-3 ovarian
  GI50: 2.77 µM
  TGI: 6.29 µM
OVCAR-4 ovarian
  GI50: 5.19 µM
  TGI: > 100 µM
OVCAR-5 ovarian
  GI50: 5.1 µM
  TGI: > 100 µM
OVCAR-8 ovarian
  GI50: 4 µM
  TGI: > 100 µM
PC-3 prostate
  GI50: 3.34 µM
  TGI: > 100 µM
SF-268 CNS
  GI50: 6.8 µM
  TGI: > 100 µM
SF-295 CNS
  GI50: 3.2 µM
  TGI: 85.6 µM
SF-539 CNS
  GI50: 3.21 µM
  TGI: 15.5 µM
SK-MEL-2 melanoma
  GI50: 10.1 µM
  TGI: 53.2 µM
SK-MEL-28 melanoma
  GI50: 5.29 µM
  TGI: 36.7 µM
SK-MEL-5 melanoma
  GI50: 3.85 µM
  TGI: 14.4 µM
SK-OV-3 ovarian
  GI50: 3.34 µM
  TGI: 19.9 µM
SN12C renal
  GI50: 4.11 µM
  TGI: > 100 µM
SNB-19 CNS
  GI50: 6.59 µM
  TGI: > 100 µM
SNB-75 CNS
  GI50: 2.56 µM
  TGI: 42.2 µM
SR leukemia
  GI50: 3.29 µM
  TGI: > 100 µM
SW-620 colon
  GI50: 3.94 µM
  TGI: > 100 µM
T-47D breast
  GI50: 12.8 µM
  TGI: 89.7 µM
TK-10 renal
  GI50: 22.3 µM
  TGI: > 100 µM
UACC-257 melanoma
  GI50: 16.6 µM
  TGI: > 100 µM
UACC-62 melanoma
  GI50: 4.2 µM
  TGI: 27.4 µM
UO-31 renal
  GI50: 5.42 µM
  TGI: > 100 µM

Reference: PubChem BioAssay (NCI)
